Data on two molecules can be found in patent US5688767A, “Treatment of endotoxin-associated disorders with cationic peptides” (priority 1996, dated 1997).

Test [1] has as its system LPS-induced TNF in RAW 264.7 macrophage cells. The experiment in a line: Inhibition of LPS-mediated TNF induction in RAW 264.7 macrophages (L929 cytotoxicity readout). In kind it is cell-based, murine. The note with it: for Unit of TNF induced / Unit of TNF induced (% of control): 100 ng purified E. coli 0111:B4 LPS, 20 μg of peptide or polymyxin B; for block of induction of TNF: 20 μg/ml, E. coli 0111:B4 and E. coli Bort LPS; for block of LPS induction of TNF: added up to 60 minutes after LPS. The protocol:
The effect of CEME and CEMA peptides on LPS-induced TNF in macrophages was examined. RAW 264.7 macrophage cells were grown by seeding 10^6 cells into a 162 cm^2 cell culture flask and incubated at 37° C., 5% CO2 for 1 week. RAW cell media (Dulbecco's Modified Eagle Medium with Hepes buffer 450 ml; 2.4 mM L-glutamine 3 ml (400 mM); Pen/Strep 3 ml (10^4 U/ml of Pen, 1 mg/ml strep); and 10% heat inactivated fetal bovine serum (FBS) 50 ml) was then completely removed from flasks. 10 mls of cell dissociation solution (Sigma) was added to each flask and incubated at 37° C. for 10 minutes. Cells were removed from flasks, diluted in RAW cell media and centrifuged for 6 minutes. The cell pellet was resuspended in 5 ml of media/flask used. […] cell suspension was removed and added to 400 μl of trypan blue and cells were counted using a hemocytometer. The cell suspension was diluted to 1×10^6cells/ml and 1 ml of suspension was added per well of a 24 well plate. The 24 well plates were incubated at 37° C., 5% CO2 overnight for use in the assay.
After an overnight incubation, the media was aspirated from all the wells. 100 μl of Lipopolysaccharide (LPS) was added at 100 ng/100 μl. CEME or CEMA was added at the desired concentration/100 μl to specified wells. […] The plates were then incubated for six hours at 37° C., 5% CO2. The supernatant was then removed from the wells and stored overnight at 4° C. For those wells in which whole bacteria were added directly to the wells, the supernatant was centrifuged in 0.2 μm filter eppendorf tubes for 5 minutes.
The supernatants were then used in cell cytotoxic L929 assay. The samples were transferred to 96 well plates. 50 μl of TNF media was added to all the wells in all the plates except to those wells in the first row. 10 μl of murine TNF standard (20 ng/ml) and 90 μl of TNF media was added in duplicate to the plate and diluted 1:2 down the plate to the second to last row. Test samples (75 μl), comprising of the supernatants from the RAW cell assays, were added to separate rows in duplicate and diluted 1:3 to the second to last rows.
TNF-sensitive L929 mouse fibroblast cells were grown by seeding 10^6 cells into a 162 cm^2 cell culture flask and left to grow for 1 week. L929 cells were removed from the flask with 10 mls of trypsin-EDTA/flask and incubated 3-5 minutes. Cell suspension was diluted and centrifuged for 6 minutes. The pellet was resuspended in 5 mls of fresh L929 media/flask and counted (same as RAW cells). Cell suspension was diluted to 10^6 cells/ml. 100 μl was used to inoculate each well of the 96 well plates with the supernatants. (L929 Growth Media was the same as RAW cell media except instead of FBS, 50 mls of 10% heat inactivated horse serum was utilized; TNF Assay Media was the same as RAW cell media except 4 μg/ml Actinomycin D was added.)
The plates were incubated at 37° C. at 5% CO2 for 2 days. The media was then aspirated and replaced with 100 μl of the dye MTT (0.5 mg/ml) in modified Eagle Medium without phenol red. The plates were then incubated at 37° C. at 5% CO2 for 3 hours. The dye was then removed and replaced with 100 μl of absolute ethanol. The plates were left at room temperature for 10-15 minutes to dissolve the formazan dye crystals.
The plates were read at 570 nm in a ELISA plate reader with 690 nm reference filter. One unit of TNF activity is defined as the amount required to kill 50% of the L929 cells. The TNF level in Units per ml therefore was the reciprocal of the dilution which led to a 50% killing of L929 cells. […]
The murine cell line RAW 264.7 was obtained from ATCC, (Rockville, Md.), and maintained and passaged as described previously (Kelly, et al., supra). TNF induction experiments with LPS were performed as described by Kelly, et al. (supra) Briefly, Dulbecco's modified Eagle medium was aspirated from RAW 264.7 cell grown overnight in 24 well tissue culture plates after seeding with 10^6 cell per ml per well and replaced with fresh medium. […]

Test [2] has as its system E. coli. In words: microbe, parasite or virus in culture. Format: cell-based, Escherichia coli. The protocol: (§1) The minimum inhibitory concentrations of (MIC) of CEME, CEMA and melittin were determined for a number of different bacteria (Table 2). Briefly, cells were grown overnight at 37° C. in LB-S (Luria broth without any salt supplement) and diluted one in 10,000 in the same medium to give concentrations of about 10^4 to 10^5 CFU/ml. The broth dilutions were set up in a 96 well microtiter plate by putting 200 μl of LB-S containing the initial concentration of antibiotic or compound in column 1 and 100 μl of the same medium in columns 2-12. The compounds were diluted by taking 100 μl of broth from column 1 and mixing it with column 2, resulting in a one in two dilution. This was continued to column 10. Finally, 10 μl of bacteria were pipetted into columns 1-11, and the plates incubated overnight at 37° C. The next day the plates were scored for growth in the wells, and the MIC determined.
(§2) Bacteria included the Bort strain of E. coli (Bortolussi, et al., Inf. Immun., 25:293, 1979) that was originally derived from a case of neonatal meningitis, and which is therefore considered a relevant pathogenic strain to study, and the 0111:B4 strain of E. coli (kindly provided by Dr. D. Morrison) which is a standard source of endotoxin. (Kelly, et al., Inf. Immun., 59:4491, 1991). In addition, P. aeruginosa PA01 strain H103, P. aeruginosa M2, P. aeruginosa K799, Eschericha coli UB 1005, Enterobacter cloacae 218S, Salmonella typhimurium MS7953s, Klebsiella pneumoniae ATCC 13883, Xanthomonas maltophilia ATCC 13637, and Acinetobacter calcoacetious 8193 were employed. LPS was obtained from E. coli Bort by the technique of Westphal and Jann, (Westphal, et al., Acad. Press, Inc. NY., 5:83) and from P. aeruginosa H103 by the method of Darveau and Hancock, (Darveau, et al., J. Bacteriol, 155:831, […]). E. coli 0111:B4 LPS was purchased from Sigma.

For test [3], the system named is E. cloacae. In words: microbe, parasite or virus in culture. In kind it is cell-based, Enterobacter cloacae. As to the method: as §1, §2
Setting [4] is: strain UB1005, Parent of DC2 (Table 2).
[5] abbreviates: strain 218S, Parent of 218R1 (Table 2).

In brackets after ≈: the same amount, converted by molar mass.

In the case of `CC[C@H](C)[C@H](NC(=O)CNC(=O)[C@@H](NC(=O)[C@H](CCCCN)NC(=O)[C@H](CCCCN)NC(=O)[C@H](Cc1ccccc1)NC(=O)[C@H](CC(C)C)NC(=O)[C@H](CCCCN)NC(=O)[C@H](Cc1c[nH]c2ccccc12)NC(=O)[C@@H](N)CCCCN)[C@@H](C)CC)C(=O)NCC(=O)N[C@@H](C)C(=O)N[C@H](C(=O)N[C@@H](CC(C)C)C(=O)N[C@@H](CCCCN)C(=O)N[C@H](C(=O)N[C@@H](CC(C)C)C(=O)N[C@H](C(=O)N[C@H](C(=O)NCC(=O)N[C@@H](CC(C)C)C(=O)N1CCC[C@H]1C(=O)N[C@@H](C)C(=O)N[C@@H](CC(C)C)C(=O)N[C@@H](CCCCN)C(=O)N[C@@H](CC(C)C)C(=O)N[C@H](C(=O)N[C@@H](CCCCN)C(=O)O)[C@@H](C)O)[C@@H](C)O)[C@@H](C)O)C(C)C)C(C)C` [CEMA], in test [1] (100 ng of E. coli 0111:B4 or E. coli Bort LPS, 6 hour), the “concentration of peptide that efficiently reduces LPS-induced TNF” value was no more than 5 µg/mL. Also, the “Unit of TNF induced” value in test [1] is on record as 566 ± 69 units/ml. Besides, the “Unit of TNF induced (% of control)” value in test [1] was 5.8%. Further, in test [1] (2 μg/ml of peptide, E. coli 0111:B4 LPS 100 ng/ml), the “reduction of TNF induction” value is on record as “more than 50%”. Moreover, in test [1], the “block of induction of TNF” value is listed as “approximately 100%”. Also, the “blockage of TNF induction, in words” value in test [1] (20-50 μg/ml of peptides, E. coli 0111:B4 LPS 100 ng/ml) is “almost complete blockage”. Besides, the “TNF produced by peptide alone” value in test [1] (CEMA (20 μg) alone, no LPS) was 50 ± 3 units/ml. Besides, the “block of LPS induction of TNF” value in test [1] is 99%. Further, the MIC in test [2] (Escherichia coli 0111:B4) was determined as 4 µg/mL (≈ 1.3 µM); in test [2] (Escherichia coli Bort), 8 µg/mL (≈ 2.61 µM); in test [2] (Escherichia coli UB1005 (Table 9)) it was 4 µg/mL (≈ 1.3 µM); in test [2] (strain DC2, Polymyxin sensitive) it was 0.7 µg/mL (≈ 0.228 µM); in test [2] (strain SC9251, Parent of SC9252), 1.4 µg/mL (≈ 0.457 µM); in test [2] (strain SC9252, Polymyxin resistant), 1.4 µg/mL (≈ 0.457 µM). Further, the MIC in test [2] (setting [4]) turned out to be 2.8 µg/mL (≈ 0.913 µM); in test [3] (Enterobacter cloacae 218S (Table 9)), 4 µg/mL (≈ 1.3 µM); in test [3] (strain 218R1, β-lactam resistant), 1.4 µg/mL (≈ 0.457 µM); in test [3] (setting [5]) it was 2.8 µg/mL (≈ 0.913 µM).
With polymyxin B, in test [1], the “Unit of TNF induced” value amounted to 573 ± 4 units/ml, the “Unit of TNF induced (% of control)” value worked out at 5.8%, the “block of induction of TNF” value is recorded as “approximately 100%” and the “block of LPS induction of TNF” value turned out to be 81%. In test [2] (setting [4]), the MIC turned out to be 0.5 µg/mL. Further, the MIC in test [3] (setting [5]) stood at 0.5 µg/mL.
